# Measurements: US20150203561A1, “BETA THYMOSIN FRAGMENTS” (REGENERX BIOPHARMACEUTICALS, INC., priority 2008, published 2015)
# Entries after “also recorded” stand apart in the source; their conditions may differ.
# Columns and labels:
# neuron survival = test: Promotion of neuron survival (summary table); parameters: key: P = active; U = useful; conditions: summary of peptide uses
# [1] = test system: TNF-a-stimulated IL8 secretion; test: Suppression of inflammation (summary table; IL-8 secretion); format: cell-based, human; parameters: key: P = active; U = useful; conditions: summary of peptide uses
# Protocol: (§1) Analysis of IL-8 Secretion • Human corneal epithelial cells or dermal Fb were cultured to 80% confluence • Cells were pre-treated with 1 μg/ml Tb4 or peptides for one hour • Cells were stimulated with 10 ng/ml TNF-a in the presence or absence of Tb4 or peptides • Culture medium was analyzed for secreted IL-8 by ELISA (n=3, experiments repeated twice) • Data was analyzed using the t-test
# neurite outgrowth = test: Promotion of neurite outgrowth (summary table); parameters: key: P = active; U = useful; conditions: summary of peptide uses
# [2] = test system: Human corneal epithelial cells; test: TNF-a-stimulated IL-8 secretion ELISA, corneal epithelial cells; format: cell-based; conditions: 1 μg/ml, 10 ng/ml TNF-a
# Protocol: as §1
# L1 = test: Stimulation of L1 production (summary table); parameters: key: P = active; U = useful; conditions: summary of peptide uses
# [3] = test system: tissue damage caused by UV radiation; test: UV radiation tissue damage (summary table); parameters: key: P = active; U = useful; conditions: summary of peptide uses
# human dermal fibroblasts [4] = test: LDH cytotoxicity assay in human dermal fibroblasts exposed to cytotoxic agents; format: cell-based; parameters: key to Protects from cytotoxicity: P = active; U = useful; conditions: for Protects from cytotoxicity: summary of peptide uses
# Protocol: Dose Response Analysis of Peptide 3A • Human dermal fibroblasts (Fb, Cascade Biologics, OR) were cultured to 80% confluence • 2 ml CHX (0.002%) in basal medium ±1 μg/ml Tb4 or 1.0, 0.1, 0.01, or 0.001 μg/ml peptide 3A was added to Fb for 1, 2, 3, or 4 hours • 100 μl culture medium (n=4) was added to 100 μl LDH reagent and incubated at room temperature for 20 minutes • OD500 nm was read and averages ±SEM were calculated • Data was analyzed with probability of p≦0.05
# [5] = test system: human gingival fibroblasts; test: CHX-induced cytotoxicity in human gingival fibroblasts; format: cell-based
# dermal Fb = test: TNF-a-stimulated IL-8 secretion ELISA, dermal fibroblasts; format: cell-based, human; conditions: 1 μg/ml, 10 ng/ml TNF-a
# Protocol: as §1
# human dermal Fb = test: CHX-induced apoptosis (APOPercentage dye) in human dermal Fb; format: cell-based; parameters: key to Inhibits apoptosis: P = active; U = useful; conditions: for Protection of dermal Fb against CHX-induced apoptosis: 1 μg/ml, 0.002% CHX for 2 hours; for Inhibits apoptosis: summary of peptide uses
# Protocol: Effect of Tb4 and Peptide 3A on CHX-induced apoptosis • Human dermal Fb were cultured to 80% confluence • Fb were treated with 0.002% CHX+1 μg/ml Tb4 or peptide 3A, 4A or 6A for 1.5 hours • APOPercentage “dye” was added to the Fb cultures at a 1:50 dilution for an additional 30 minutes • Excess dye was washed from the cells, and digital images were captured. Cells dyed red were apoptotic • Adobe Photoshop was used to calculate the number of red pixels in six digitized images for each treatment • Statistical analysis was done using the t-test
# [6] = test system: human gingival fibroblasts; test: CHX-induced apoptosis in human gingival fibroblasts; format: cell-based; conditions: 0.002% CHX for 2 hours
# T-lymphocyte = test: Impaired T-lymphocyte blastogenic response (summary table); parameters: key: P = active; U = useful; conditions: summary of peptide uses
# [7] = test system: p65 subunit of NFkB in human corneal epithelial cells; test: NFkB nuclear translocation; format: cell-based; parameters: key: P = active; U = useful; conditions: summary of peptide uses
# Protocol: Analysis of NFkB Nuclear Translocation • Human corneal epithelial cells were cultured to 80% confluence • Cells were pre-treated with 1 μg/ml Tb4 or peptide 4A or 6A for one hour • Cells were stimulated with 10 ng/ml TNF-a in the presence or absence of Tb4 or peptides for 15 minutes • Cells were fixed and labeled with antibodies to the p65 subunit of NFkB
# human dermal fibroblasts [8] = test: Elastin secretion, colorimetric assay; format: cell-based; parameters: key to Stimulates Elastin: P = active; U = useful
# Protocol: Effect of Tb4 and peptides on elastin secretion • Human dermal fibroblasts (Fb) were cultured to 80% confluence • Cells were treated with 1 μg/ml Tb4 or peptides for 24, 48, or 72 hours. Cells were treated once/day. • Culture supernatants (n=3, experiments repeated 6 times) were assayed for elastin secretion using a colorimetric assay • Data was analyzed using the t-test
# cell migration = test: Stimulation of migration (summary table); format: cell-based; parameters: key: P = active; U = useful; conditions: summary of peptide uses
# [9] = 1 μg/ml, 0.002% CHX, 1, 2, or 3 hours exposure
# [10] = 1 μg/ml, 0.002% CHX, 2 hour exposure
Substance,Promotes neuron survival (neuron survival),Suppresses inflammation [1],Promotes neurite outgrowth (neurite outgrowth),Suppression of TNF-a-stimulated IL8 secretion [2],Stimulates L1 production (L1),Inhibits tissue damage caused by UV radiation [3],Protects tissue from UV radiation damage [3],Protection of Fb against the cytotoxic effects of CHX (LDH) (human dermal fibroblasts [4]; [9]),Protection of Fb against the cytotoxic effects of CHX (LDH) (human dermal fibroblasts [4]; [10]),Protects from cytotoxicity (human dermal fibroblasts [4]),Suppression of TNF-a-stimulated IL8 secretion (dermal Fb),Protection of dermal Fb against CHX-induced apoptosis (human dermal Fb),Inhibits apoptosis (human dermal Fb),Protection of gingival Fb against CHX-induced apoptosis [6],other results
H-Leu-Lys-Lys-Thr-Glu-Thr-OH (H-LKKTET-OH) [Peptide 1A],U,P,U,suppress,U,U,U,–,–,–,–,–,–,–,–
H-SDKPDMAEIEKFDKS-OH [Peptide 3A],U,P,U,–,U,U,U,protect,protect,P,suppress,protect; also recorded: can inhibit,P,protect; also recorded: can inhibit,"Protection of Fb against the cytotoxic effects of CHX (LDH), dose response analysis (human dermal fibroblasts [4]; 1.0 μg/ml peptide, 0.002% CHX, 2 hours): protects; Protection of Fb against the cytotoxic effects of CHX (LDH) (human dermal fibroblasts [4]; 0.002% and 0.005% CHX, 2 hours exposure): protects; Protection of Fb against the cytotoxic effects of benzalkonium chloride (LDH) (human dermal fibroblasts [4]; 0.01% benzalkonium chloride): protects; Protection of Fb against the cytotoxic effects of hydrogen peroxide (LDH) (human dermal fibroblasts [4]; 1% hydrogen peroxide): protects; Protection of Fb against the cytotoxic effects of ethanol (LDH) (human dermal fibroblasts [4]; 10% ethanol): does not protect; Inhibition of chlorhexidine digluconate, hydrogen peroxide, and benzalkonium chloride-induced cytotoxicity (human dermal fibroblasts [4]; cultured human dermal fibroblasts, up to 4 hours exposure): can inhibit; Protection of gingival Fb against cytotoxicity induced by CHX ([5]; 0.002% CHX): protects; Inhibition of chlorhexidine digluconate and Peridex induced cytotoxicity ([5]; cultured human gingival fibroblasts, Peridex diluted to 0.002% CHX): can inhibit"
"Thymosin β4 [Tb4, reference compound]",P,P,P,suppress,P,P,P,protect,protect,P,suppress,protect,P,protect,"Restores impaired T-lymphocyte blastogenic response (T-lymphocyte): P; Inhibits NFkB translocation [7]: P; Secretion of elastin (human dermal fibroblasts [8]; dermal Fb, 1 μg/ml once/day, 24, 48, or 72 hours): stimulate; Stimulates Elastin (human dermal fibroblasts [8]; summary of peptide uses): P; Stimulates Migration (cell migration): P"
